What was measured:
[1] = Liver exposure: substance level in liver homogenate by LC-MS/MS; format: in vivo; details: rat, oral, male Wistar rats, 10 mg/kg of body weight, liver dissected after 2 h, read-out: Cmax values in the liver (L)
Method: The liver exposure of the compounds of the invention compared with the corresponding compounds without a hydroxyl function in the 2″ position was investigated in vivo in male Wistar rats. A rat anesthetized with ketamine/midazolam (ketamine 80 mg/kg i.p.+midazolam 5 mg/kg i.p.) undergoes laparotomy in the Linea alba, and then the product is administered intraduodenally. During this it is attempted to prevent direct reflux of the product into the stomach. The animals remain under anesthesia throughout the experiment. At the end of the experiment, after 2 h, the liver is dissected out for determination of the substance. The substance levels in the liver homogenates are determined by LC-MS/MS. For this purpose, initially the proteins are precipitated by adding acetonitrile in the presence of an internal standard. Part of the supernatant is mixed with a suitable buffer, and an aliquot of the mixture is injected. The measurement is evaluated via the peak areas of analyte and internal standard.
Cmax values in the liver (L) after oral administration of 10 mg/kg of body weight

[2] = system: uptake of 14C-cholesterol in the liver (cholesterol absorption); experiment: Cholesterol absorption test: uptake of 14C-cholesterol in the liver after an oral test meal; format: in vivo, NMRI mice; details: mouse, dose which halves (50%) the uptake of 14C-cholesterol in the liver relative to control group
Method: Influence on Cholesterol Absorption+^3H-Taurocholic Acid Excretion on the Basis of the Fecal Excretion in Mice, Rats or Hamsters
NMRI mice, Wistar rats, or golden Syrian hamsters (in groups of n=4-6) are kept with a standard diet (Altromin, Lage (Lippe)) in metabolism cages. The animals are fasted from the afternoon before administration of the radioactive tracer (^14C-cholesterol) and adapted to wire grids.
In addition, the animals are labeled with ^3H-TCA (taurocholic acid) s.c. 24 hours before the oral administration of the test meal (^14C-cholesterol in Intralipid® 20, Pharmacia-Upjohn) (e.g. 1 μCi/mouse to 5 μCi/rat).
Cholesterol absorption test: 0.25 ml/mouse Intralipid® 20 (Pharmacia-Upjohn) (spiking with 0.25 μCi ^14C-cholesterol in 0.1 mg of cholesterol) is administered orally by gavage.
Test substances are made up separately in 0.5%/(methylcellulose (Sigma)/5% Solutol (BASF, Ludwigshafen) or a suitable vehicle.
The volume for administration of the test substance is 0.5 ml/mouse. The test substance is administered orally immediately before the test meal (Intralipid with ^14C-cholesterol label) (cholesterol absorption test).
Feces are collected for 24 h: the fecal elimination of ^14C-cholesterol and ^3H taurocholic acid (TCA) is determined after 24 h.
The livers are removed, homogenized and combusted in aliquots in an oximate (model 307, Packard) to determine the amount of ^14C-cholesterol taken up/absorbed.
The amount of ^14C-cholesterol taken up in the liver is evaluated in relation to a control group (vehicle-treated) as a function of the dose of the substance administered. The ED50 values are interpolated from a dose-effect plot as the dose which halves (50%) the uptake of ^14C-cholesterol in the liver relative to a control group.

serum LDL cholesterol = experiment: Hamster model: serum LDL cholesterol reduction on a cholesterol-supplemented diet; format: in vivo, Syrian hamsters; details: Mesocricetus auratus, po, once a day by gavage on 12 consecutive days, LDL cholesterol reduction vs placebo-treated controls
Method: Syrian hamsters (in groups of n=5-9) receive a standard diet (ssniff, Soest Germany) supplemented with 0.1% cholesterol.
The test substances are made up in 0.5%/(methylcellulose (Sigma)/5% Solutol (BASF, Ludwigshafen) or another suitable vehicle, and at least three dosages are administered once a day by gavage on 12 consecutive days.
On day 12, the animals are exsanguinated from the aorta under deep anesthesia. The serum is analyzed for total cholesterol, LDL-cholesterol, HDL-cholesterol and triglycerides using standard kits from Roche in accordance with the guidelines of the German Society for Clinical Chemistry.
The ED50 values for LDL cholesterol reduction compared with placebo-treated control animals were calculated using a standard logistic model for the dose-effect plot.

| SMILES | Cmax at 2 h [1] | ED50 (liver) [2] | ED50 (serum LDL cholesterol) |
| --- | --- | --- | --- |
| N.O=C1[C@H](CC[C@H](O)c2ccc(F)cc2)[C@@H](c2ccc(OCCCOS(=O)(=O)O)cc2O)N1c1ccc(F)cc1 | 300 ng/mL |  |  |
| O=C1[C@H](CC[C@H](O)c2ccc(F)cc2)[C@@H](c2ccc(OCc3ccc(C[N+]45CCN(CC4)CC5)cc3)cc2O)N1c1ccc(F)cc1.[Br-] | 80 ng/mL |  |  |
| C[n+]1ccn(CCCCOc2ccc([C@@H]3C(CC[C@H](O)c4ccc(F)cc4)C(=O)N3c3ccc(F)cc3)c(O)c2)c1.[I-] (stereo in doubt) [Example M, 3-[4-(4-{1-(4-Fluorophenyl)-3-[3-(4-fluorophenyl)-3-hydroxypropyl]-4-oxoazetidin-2-yl}-3-hydroxyphenoxy)butyl]-1-methyl-3H-imidazol-1-ium iodide] |  | <0.1 mg/mouse |  |
| O=C(OCc1ccc([C@@H]2[C@@H](CC[C@H](O)c3ccc(F)cc3)C(=O)N2c2ccc(F)cc2)c(O)c1)N1CCN(S(=O)(=O)O)CC1 [Example A, Ammonium 4-(4-{1-(4-fluorophenyl)-3-[3-(4-fluorophenyl)-3-hydroxypropyl]-4-oxoazetidin-2-yl}-3-hydroxybenzyloxycarbonyl)piperazine-1-sulfamate] |  | 0.01 mg/mouse | 0.2 mg/kg |
| O=C1C(CC[C@H](O)c2ccc(F)cc2)[C@@H](c2ccc(CN3CCN(S(=O)(=O)O)CC3)cc2O)N1c1ccc(F)cc1 (stereo partly shown) [Example B, Ammonium 4-(4-{1-(4-Fluorophenyl)-3-[3-(4-fluorophenyl)-3-hydroxypropyl]-4-oxoazetidin-2-yl}-3-hydroxybenzyl)piperazine-1-sulfamate] |  | <0.1 mg/mouse |  |
| C[N+]1(C)CCN(C(=O)OCc2ccc([C@@H]3[C@@H](CC[C@H](O)c4ccc(F)cc4)C(=O)N3c3ccc(F)cc3)c(O)c2)CC1.[I-] [Example C, 4-(4-{1-(4-Fluorophenyl)-3-[3-(4-fluorophenyl)-3-hydroxypropyl]-4-oxoazetidin-2-yl}-3-hydroxybenzyloxycarbonyl)-1,1-dimethylpiperazin-1-ium iodide] |  | 0.1 mg/mouse |  |
| O=C(Nc1ccc([C@@H]2[C@@H](CC[C@H](O)c3ccc(F)cc3)C(=O)N2c2ccc(F)cc2)c(O)c1)N1CCN(S(=O)(=O)O)CC1 [Example E, Ammonium 4-(4-{1-(4-fluorophenyl)-3-[3-(4-fluorophenyl)-3-hydroxypropyl]-4-oxoazetidin-2-yl}-3-hydroxyphenylcarbamoyl)piperazine-1-sulfamate] |  | <0.01 mg/mouse | 0.1 mg/kg |
| O=C1[C@H](CC[C@H](O)c2ccc(F)cc2)[C@@H](c2ccc(NS(=O)(=O)O)cc2O)N1c1ccc(F)cc1 [Example F, Ammonium (4-[1-(4-fluorophenyl)-3-[3-(4-fluorophenyl)-3-hydroxypropyl]-4-oxoazetidin-2-yl]-3-hydroxyphenyl)sulfamate] |  | 0.3 mg/mouse |  |
| O=C1[C@H](CC[C@H](O)c2ccc(F)cc2)[C@@H](c2ccc(OCCCOS(=O)(=O)O)cc2O)N1c1ccc(F)cc1 [Example K] |  | <0.01 mg/mouse |  |
| O=C1C(CC[C@H](O)c2ccc(F)cc2)[C@@H](c2ccc(OCc3ccc(C[N+]45CCN(CC4)CC5)cc3)cc2O)N1c1ccc(F)cc1.[Br-] (stereo partly shown) [Example N, 1-[4-(4-{1-(4-Fluorophenyl)-3-[3-(4-fluorophenyl)-3-hydroxypropyl]-4-oxoazetidin-2-yl}-3-hydroxyphenoxymethyl)benzyl]-4-aza-1-azoniabicyclo[2.2.2]octane bromide] |  | 0.01 mg/mouse |  |
| COc1ccc([C@@H]2[C@@H](CC[C@H](O)c3ccc(F)cc3)C(=O)N2c2ccc(CNC(=O)CCCCCCCCCCNC(=O)[C@H](O)[C@@H](O)[C@H](O)[C@H](O)CO)cc2)c(O)c1 [Example O, 11-(2,3,4,5,6-Pentahydroxyhexanoylamino)undecanoic acid 4-[3-[3-(4-fluorophenyl)-3-hydroxypropyl]-2-(2-hydroxy-4-methoxyphenyl)-4-oxoazetidin-1-yl]benzylamide] |  | <0.01 mg/mouse |  |
| COc1ccc([C@@H]2[C@@H](CC[C@H](O)c3ccc(F)cc3)C(=O)N2c2ccc(CNC(=O)N3CCN(C(=O)C[N+]45CCN(CC4)CC5)CC3)cc2)c(O)c1.[Cl-] [Example P, 1-[2-(4-{4-[3-[3-(4-Fluorophenyl)-3-hydroxypropyl]-2-(2-hydroxy-4-methoxyphenyl)-4-oxoazetidin-1-yl]benzylcarbamoyl}piperazin-1-yl)-2-oxoethyl]-4-aza-1-azoniabicyclo[2.2.2]octane chloride] |  | 0.3 mg/mouse |  |
| O=C(C[N+]12CCN(CC1)CC2)Nc1ccc([C@@H]2[C@@H](CC[C@H](O)c3ccc(F)cc3)C(=O)N2c2ccc(F)cc2)c(O)c1.[I-] [H, 1-[(4-{1-(4-Fluorophenyl)-3-[3-(4-fluorophenyl)-3-hydroxypropyl]-4-oxoazetidin-2-yl}-3-hydroxyphenylcarbamoyl)methyl]-4-aza-1-azoniabicyclo[2.2.2]octane iodide] |  | 0.01 mg/mouse |  |
| O=C(Oc1ccc([C@@H]2[C@@H](CC[C@H](O)c3ccc(F)cc3)C(=O)N2c2ccc(F)cc2)c(O)c1)N1CCN(S(=O)(=O)O)CC1 [I, Ammonium 4-(4-{1-(4-Fluorophenyl)-3-[3-(4-fluorophenyl)-3-hydroxypropyl]-4-oxoazetidin-2-yl}-3-hydroxyphenoxycarbonyl)piperazine-1-sulfamate] |  | 0.01 mg/mouse | < 0.1 mg/kg |
| N.O=C1[C@H](CC[C@H](O)c2ccc(F)cc2)[C@@H](c2ccc(OCCCOS(=O)(=O)O)cc2)N1c1ccc(F)cc1 [reference compound] | 24300 ng/mL |  |  |
| O=C1[C@H](CC[C@H](O)c2ccc(F)cc2)[C@@H](c2ccc(OCc3ccc(C[N+]45CCN(CC4)CC5)cc3)cc2)N1c1ccc(F)cc1.[Br-] [reference compound] | 200 ng/mL |  |  |
